Measurements reported in PubChem BioAssay AID256 (DTP/NCI, 2004).
Where “and” joins values, the source holds several entries; their conditions need not be identical. Equal values may be shown once. Toxic doses and inconclusive results are not listed.

Test system: CD2F1 mice, L1210 leukemia ip, survival T/C
Assay: NCI In Vivo Anticancer Drug Screen. Data for tumor model L1210 Leukemia (intraperitoneal) in CD2F1 (CDF1) mice
Settings: higher = longer survival
Summary of the method: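 Antitumor effect is scored in animals hosting a serially transplanted tumor. Values compare compound-dosed animals against vehicle-only controls as a simple quotient.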

[1] = endpoint: mean survival time, dose: 100.0 mg/kg/injection, schedule: Q04DX003 (ip), vehicle: saline
[2] = endpoint: mean survival time, dose: 200.0 mg/kg/injection, schedule: Q04DX003 (ip), vehicle: saline
[3] = endpoint: mean survival time, dose: 400.0 mg/kg/injection, schedule: Q04DX003 (ip), vehicle: saline
[4] = endpoint: mean survival time, dose: 100.0 mg/kg/injection, schedule: Q01DX009 (ip), vehicle: saline sonified
[5] = endpoint: mean survival time, dose: 100.0 mg/kg/injection, schedule: Q04DX003 (ip), vehicle: saline with Tween-80
[6] = endpoint: mean survival time, dose: 200.0 mg/kg/injection, schedule: Q01DX009 (ip), vehicle: saline sonified
[7] = endpoint: mean survival time, dose: 200.0 mg/kg/injection, schedule: Q04DX003 (ip), vehicle: saline with Tween-80
[8] = endpoint: mean survival time, dose: 400.0 mg/kg/injection, schedule: Q01DX009 (ip), vehicle: saline sonified
[9] = endpoint: mean survival time, dose: 400.0 mg/kg/injection, schedule: Q04DX003 (ip), vehicle: saline with Tween-80
[10] = endpoint: mean survival time, dose: 100.0 mg/kg/injection, schedule: Q01DX009 (ip), vehicle: saline with Tween-80
[11] = endpoint: mean survival time, dose: 200.0 mg/kg/injection, schedule: Q01DX009 (ip), vehicle: saline with Tween-80
[12] = endpoint: mean survival time, dose: 100.0 mg/kg/injection, schedule: Q01DX001 (ip), vehicle: saline with Tween-80
[13] = endpoint: mean survival time, dose: 400.0 mg/kg/injection, schedule: Q01DX001 (ip), vehicle: saline with Tween-80
[14] = endpoint: mean survival time, dose: 100.0 mg/kg/injection, schedule: Q04DX002 (ip), vehicle: saline with Tween-80
[15] = endpoint: mean survival time, dose: 400.0 mg/kg/injection, schedule: Q04DX002 (ip), vehicle: saline with Tween-80

For `CCOC(=O)C(N)CSSCC(N)C(=O)OCC` (stereo unspecified), the T/C [1] was 100 % of control, the T/C [2] was 102 % of control and the T/C [3] was 97 % of control.

For `O=CC1C2C=CCC12` (stereo unspecified), the T/C [4] was 102 % of control, the T/C [5] was 95 % of control and the T/C [6] was 102 % of control. For the same molecule, the T/C [7] was 95 % of control, the T/C [8] was 91 % of control and the T/C [9] was 95 % of control.

For `CCOC(=O)CN/N=C(\N)CSS(=O)(=O)O`, the T/C [5] was 97 % of control, the T/C [7] was 97 % of control and the T/C [9] was 100 % of control.

For `O=C(O)CNC(=O)C(CN1CC(=O)OC1c1ccc([N+](=O)[O-])cc1)N1C(=O)c2ccccc2C1=O` (stereo unspecified), the T/C (endpoint: mean survival time, dose: 100.0 mg/kg/injection, schedule: Q04DX003 (ip), vehicle: saline sonified) was 92 % of control, the T/C (endpoint: mean survival time, dose: 200.0 mg/kg/injection, schedule: Q04DX003 (ip), vehicle: saline sonified) was 88 % of control and the T/C (endpoint: mean survival time, dose: 400.0 mg/kg/injection, schedule: Q04DX003 (ip), vehicle: saline sonified) was 92 % of control.

For `O=C(O)C(O)CO.O=C(O)C(O)CO.[NH-]C1CCCCC1[NH-].[Pt+2]` (stereo unspecified), the T/C (endpoint: mean survival time, dose: 2.5 mg/kg/injection, schedule: Q04DX003 (ip), vehicle: other) was 124 % of control.

In the case of `CN1C(=O)CN=C(c2ccccn2)c2cc(Cl)ccc21`, the T/C [4] was 97 % of control, the T/C [6] was 90 % of control and the T/C [8] was 102 % of control.

`NOCc1ccccc1CON` was tested, and the T/C (endpoint: mean survival time, dose: 75.0 mg/kg/injection, schedule: Q01DX001 (ip), vehicle: saline) was 96 % of control, the T/C (endpoint: mean survival time, dose: 150.0 mg/kg/injection, schedule: Q01DX001 (ip), vehicle: saline) was 100 % of control and the T/C (endpoint: mean survival time, dose: 300.0 mg/kg/injection, schedule: Q01DX001 (ip), vehicle: saline) was 100 % of control.

`O=S(=O)(/C=C\c1ccccc1)/C=C/c1ccccc1` was tested, and the T/C [5] was 91 % of control and the T/C [9] was 86 % of control.

For `O=C1C=C[C@H](O)[C@@]2(CO)O[C@@H]12`, the T/C (endpoint: median survival time, dose: 0.31 mg/kg/injection, schedule: Q01DX009 (ip), vehicle: saline with Tween-80) was 102 % of control, the T/C (endpoint: median survival time, dose: 0.62 mg/kg/injection, schedule: Q01DX009 (ip), vehicle: saline with Tween-80) was 101 % of control and the T/C (endpoint: median survival time, dose: 1.25 mg/kg/injection, schedule: Q01DX009 (ip), vehicle: saline with Tween-80) was 118 % of control and 110 % of control. The T/C (endpoint: median survival time, dose: 2.5 mg/kg/injection, schedule: Q01DX009 (ip), vehicle: saline with Tween-80) was 121 % of control and 123 % of control, the T/C (endpoint: median survival time, dose: 5.0 mg/kg/injection, schedule: Q01DX009 (ip), vehicle: saline with Tween-80) was 114 % of control and the T/C (endpoint: median survival time, dose: 10.0 mg/kg/injection, schedule: Q01DX009 (ip), vehicle: saline with Tween-80) was 118 % of control.

In the case of `N#C/C(=C1C=C/C(=N\O)C(Cl)=C\1)c1ccccc1`, the T/C [10] was 103 % of control, the T/C [5] was 88 % of control and the T/C [11] was 88 % of control. For the same molecule, the T/C [7] was 93 % of control and the T/C [9] was 96 % of control.

In the case of `CCC(C)(O)C(C)N(C)c1ccccc1` (stereo unspecified), the T/C [1] was 102 % of control and 97 % of control, the T/C [2] was 102 % of control and 100 % of control and the T/C [3] was 102 % of control and 106 % of control.

In the case of `O=C(CCl)N1CCC(CC2(c3cc4ccccc4[nH]3)OCCO2)CC1`, the T/C (endpoint: mean survival time, dose: 50.0 mg/kg/injection, schedule: Q04DX002 (ip), vehicle: other) was 106 % of control, the T/C (endpoint: mean survival time, dose: 100.0 mg/kg/injection, schedule: Q04DX002 (ip), vehicle: other) was 109 % of control and the T/C (endpoint: mean survival time, dose: 200.0 mg/kg/injection, schedule: Q04DX002 (ip), vehicle: other) was 91 % of control.

For `COc1cc2c(cc1OCc1ccccc1)NC(=O)C2`, the T/C [12] was 91 % of control and the T/C [13] was 86 % of control.

`O=C(/C=C/c1ccccc1)Nc1ccc(Cl)c(Cl)c1` was tested, and the T/C [14] was 100 % of control, the T/C (endpoint: mean survival time, dose: 200.0 mg/kg/injection, schedule: Q04DX002 (ip), vehicle: saline with Tween-80) was 91 % of control and the T/C [15] was 95 % of control.

`O=C1CNC(=O)N1CN1CCOCC1` was tested, and the T/C (endpoint: median survival time, dose: 50.0 mg/kg/injection, schedule: Q01DX009 (ip), vehicle: Klucel (hydroxypropylcellulose) (HPC)) was 108 % of control, the T/C (endpoint: median survival time, dose: 100.0 mg/kg/injection, schedule: Q01DX009 (ip), vehicle: Klucel (hydroxypropylcellulose) (HPC)) was 116 % of control and the T/C (endpoint: median survival time, dose: 200.0 mg/kg/injection, schedule: Q01DX009 (ip), vehicle: Klucel (hydroxypropylcellulose) (HPC)) was 116 % of control. For the same molecule, the T/C (endpoint: median survival time, dose: 400.0 mg/kg/injection, schedule: Q01DX009 (ip), vehicle: Klucel (hydroxypropylcellulose) (HPC)) was 117 % of control.

For `O=C(O)c1cc[c]([Hg][S]c2ncnc3nc[nH]c23)cc1`, the T/C (endpoint: mean survival time, dose: 5.0 mg/kg/injection, schedule: Q01DX001 (ip), vehicle: saline) was 98 % of control, the T/C (endpoint: mean survival time, dose: 10.0 mg/kg/injection, schedule: Q01DX001 (ip), vehicle: saline) was 98 % of control and the T/C (endpoint: mean survival time, dose: 20.0 mg/kg/injection, schedule: Q01DX001 (ip), vehicle: saline) was 101 % of control. The T/C (endpoint: mean survival time, dose: 25.0 mg/kg/injection, schedule: Q04DX003 (ip), vehicle: saline with Tween-80) was 98 % of control, the T/C (endpoint: mean survival time, dose: 33.0 mg/kg/injection, schedule: Q04DX003 (ip), vehicle: saline sonified) was 119 % of control and the T/C (endpoint: mean survival time, dose: 37.5 mg/kg/injection, schedule: Q01DX009 (ip), vehicle: saline sonified) was 172 % of control. The T/C (endpoint: mean survival time, dose: 40.0 mg/kg/injection, schedule: Q01DX001 (ip), vehicle: saline) was 98 % of control, the T/C (endpoint: mean survival time, dose: 50.0 mg/kg/injection, schedule: Q04DX003 (ip), vehicle: saline sonified) was 119 % of control and the T/C (endpoint: mean survival time, dose: 50.0 mg/kg/injection, schedule: Q04DX003 (ip), vehicle: saline with Tween-80) was 104 % of control. For the same molecule, the T/C (endpoint: mean survival time, dose: 80.0 mg/kg/injection, schedule: Q01DX001 (ip), vehicle: saline) was 104 % of control, the T/C [4] was 120 % of control and the T/C [5] was 121 % of control and 101 % of control.

With `CCC[n+]1c(C)oc2ccc(-c3ccccc3)cc21` the T/C [5] was 100 % of control and the T/C [7] was 101 % of control.

With `Cc1cc(C)nc(NS(=O)(=O)c2ccc(NCN3C(=O)c4ccccc4C3=O)cc2)n1` the T/C [12] was 101 % of control, the T/C [10] was 96 % of control and the T/C (endpoint: mean survival time, dose: 200.0 mg/kg/injection, schedule: Q01DX001 (ip), vehicle: saline with Tween-80) was 107 % of control. The T/C [11] was 94 % of control, the T/C [13] was 107 % of control and the T/C (endpoint: mean survival time, dose: 400.0 mg/kg/injection, schedule: Q01DX009 (ip), vehicle: saline with Tween-80) was 90 % of control.

`C=CCOCC(O)CNCC(O)COCC=C` (stereo unspecified) was tested, and the T/C [5] was 100 % of control.

`O=C(/C=C\c1ccnc2ccccc12)c1ccc([N+](=O)[O-])cc1` was tested, and the T/C (endpoint: mean survival time, dose: 12.5 mg/kg/injection, schedule: Q01DX009 (ip), vehicle: other) was 94 % of control, the T/C (endpoint: mean survival time, dose: 25.0 mg/kg/injection, schedule: Q01DX009 (ip), vehicle: other) was 89 % of control and the T/C (endpoint: mean survival time, dose: 50.0 mg/kg/injection, schedule: Q01DX009 (ip), vehicle: other) was 89 % of control. For the same molecule, the T/C (endpoint: mean survival time, dose: 100.0 mg/kg/injection, schedule: Q01DX009 (ip), vehicle: other) was 92 % of control, the T/C [5] was 97 % of control and the T/C (endpoint: mean survival time, dose: 200.0 mg/kg/injection, schedule: Q01DX009 (ip), vehicle: other) was 97 % of control. The T/C [7] was 94 % of control and the T/C [9] was 91 % of control.

With `O=C(O)CCC1NCCCO1` (stereo unspecified) the T/C (endpoint: mean survival time, dose: 100.0 mg/kg/injection, schedule: Q01DX009 (ip), vehicle: saline) was 101 % of control, the T/C [1] was 88 % of control and the T/C (endpoint: mean survival time, dose: 200.0 mg/kg/injection, schedule: Q01DX009 (ip), vehicle: saline) was 95 % of control. For the same molecule, the T/C (endpoint: mean survival time, dose: 400.0 mg/kg/injection, schedule: Q01DX009 (ip), vehicle: saline) was 95 % of control and the T/C [3] was 95 % of control.

`CNc1ccc(CC(=O)O)cc1` was tested, and the T/C (endpoint: mean survival time, dose: 100.0 mg/kg/injection, schedule: Q04DX003 (ip), vehicle: Klucel (hydroxypropylcellulose) (HPC)) was 92 % of control, the T/C (endpoint: mean survival time, dose: 200.0 mg/kg/injection, schedule: Q04DX003 (ip), vehicle: Klucel (hydroxypropylcellulose) (HPC)) was 93 % of control and the T/C (endpoint: mean survival time, dose: 400.0 mg/kg/injection, schedule: Q04DX003 (ip), vehicle: Klucel (hydroxypropylcellulose) (HPC)) was 96 % of control.

For `O=C1c2ccccc2C(=O)c2cc(NS(=O)(=O)C(F)(F)F)ccc21`, the T/C (endpoint: mean survival time, dose: 100.0 mg/kg/injection, schedule: Q01DX001 (ip), vehicle: saline) was 96 % of control and the T/C (endpoint: mean survival time, dose: 200.0 mg/kg/injection, schedule: Q01DX001 (ip), vehicle: saline) was 100 % of control.

In the case of `CC(C)OC(=O)N1C(=O)C2C3CCC(O3)C2C1=O` (stereo unspecified), the T/C (endpoint: mean survival time, dose: 25.0 mg/kg/injection, schedule: Q01DX009 (ip), vehicle: saline with Tween-80) was 105 % of control, the T/C (endpoint: mean survival time, dose: 25.0 mg/kg/injection, schedule: Q04DX002 (ip), vehicle: saline with Tween-80) was 101 % of control and the T/C (endpoint: mean survival time, dose: 50.0 mg/kg/injection, schedule: Q01DX009 (ip), vehicle: saline with Tween-80) was 97 % of control. For the same molecule, the T/C (endpoint: mean survival time, dose: 50.0 mg/kg/injection, schedule: Q04DX002 (ip), vehicle: saline with Tween-80) was 101 % of control, the T/C [10] was 97 % of control and the T/C [14] was 106 % of control. For the same molecule, the T/C [15] was 97 % of control.
